How the values were obtained:
HIV-1Bal (R5-tropic) [1] = assay: Test for inhibition of macrophage infection; type: cell-based
Excerpt: (§1) In order to carry out cytotoxicity and infection-inhibiting activity tests, three cell types and two viral strains were used. This involved a laboratory strain HIV-1NDK(X4-tropic) which was amplified by lymphocytes originating from healthy donors, and a primary strain HIV-1Bal (R5-tropic) which was amplified by macrophages.
(§2) As regards the cell types, macrophages and dendritic cells were obtained from peripheral blood mononuclear cells. In addition, lymphocytes were provided.
(§3) As regards the inhibitory activity, the macrophages or the dendritic cells are incubated with viral particles of the abovementioned strains, HIV-1NDK(X4-tropic) or HIV-1Bal (R5-tropic), in the presence and absence of the terpenic compositions. The cells are subsequently washed and then put back in culture and, finally, centrifuged. The supernatants are then recovered and the viral particles are lyzed in order to measure the concentration of a viral protein using the ELISA assay. In this way, the inhibitory activity of the terpenic compositions is evaluated by comparison between the nontreated infected cells and the treated infected cells.
(§4) Next, the inhibition of the infection of the macrophages was evaluated. Since the latter are potential reservoirs for HIV, it is a question of measuring the ability of the terpenic composition to prevent infection of the macrophages.

HIV-1NDK (X4-tropic) [2] = assay: Test for inhibition of macrophage infection; type: cell-based
Excerpt: as §1, §2, §3, §4

HIV-1Bal (R5-tropic) [3] = assay: Test for inhibition of dendritic cell infection; type: cell-based
Excerpt: as §1, §2, §3
(§5) Furthermore, tests were carried out on the inhibition of dendritic cell infection, since these cells are involved in HIV transmission at the mucosal level.

HIV-1NDK (X4-tropic) [4] = assay: Test for inhibition of dendritic cell infection; type: cell-based
Excerpt: as §1, §2, §3, §5

HIV-1Bal (R5-tropic) [5] = assay: Test for inhibition of transfer from dendritic cells to T lymphocytes; type: cell-based
Experimental: (§6) In addition, tests for transfer of the virus, from the dendritic cells to autologous T lymphocytes, i.e. T lymphocytes originating from the same stem cells, were carried out.
(§7) For this, dendritic cells are transferred and incubated with each of the terpenic compositions and the virus. Next, after washing, autologous T lymphocytes are added in a ratio of one dendritic cell to five T lymphocytes. The concentration of viral proteins of the abovementioned type is then evaluated by means of the ELISA assay.
(§8) Dendritic cells express, at their surface, an adhesion protein, DC-SIGN, which forms a viral receptor capable of capturing HIV and of facilitating the infection of permissive cells via a “trans-infection” mechanism. This is because the DC-SIGN receptor can interact with the envelope of HIV and hold the virion in an infectious state so as to subsequently transmit it to permissive T lymphocytes in the adjacent lymph nodes.

HIV-1NDK (X4-tropic) [6] = assay: as above; type: cell-based
Experimental: as §6, §7, §8

X4 strains = assay: Direct activity on X4 strains (noninfectious / detergent activity); set-up: species or system HIV-1; conditions: diluted to 1/100th
[7] = diluted to 1/200th, listed as Third
[8] = diluted to 1/200th, listed as third preparation
[9] = diluted to 1/2000th, listed as Fourth
[10] = diluted to 1/2000th, listed as fourth preparation

zinc aceto-salicylo-borneolate [Fifth preparation]
inhibition of infection of macrophages with strains of the R5-tropic group (HIV-1Bal (R5-tropic) [1]; diluted to 50%): more than 50%

zinc ascorbo-camphorate [Third preparation]
inhibition of macrophage infection, HIV-1Bal (R5-tropic) (HIV-1Bal (R5-tropic) [1]; [7]): >95%
inhibition of macrophage infection, HIV-1Bal (R5-tropic) (HIV-1Bal (R5-tropic) [1]; [8]): more than 95%
inhibition of macrophage infection, HIV-1Bal (R5-tropic) (HIV-1Bal (R5-tropic) [1]; diluted to 1/2000th): the same results
inhibition of macrophage infection, HIV-1NDK (X4-tropic) (HIV-1NDK (X4-tropic) [2]; [7]): >95%
inhibition of macrophage infection, HIV-1NDK (X4-tropic) (HIV-1NDK (X4-tropic) [2]; [8]): more than 95%
inhibition of macrophage infection, HIV-1NDK (X4-tropic) (HIV-1NDK (X4-tropic) [2]; diluted to 1/2000th): the same results
inhibition of dendritic cell infection, HIV-1Bal (R5-tropic) (HIV-1Bal (R5-tropic) [3]; [7]): >95%
inhibition of dendritic cell infection, HIV-1Bal (R5-tropic) (HIV-1Bal (R5-tropic) [3]; [8]): more than 95%
inhibition of dendritic cell infection, HIV-1NDK (X4-tropic) (HIV-1NDK (X4-tropic) [4]; [7]): >95%
inhibition of dendritic cell infection, HIV-1NDK (X4-tropic) (HIV-1NDK (X4-tropic) [4]; [8]): more than 95%
inhibition of transfer from dendritic cells to T lymphocytes, HIV-1Bal (R5-tropic) (HIV-1Bal (R5-tropic) [5]; [7]): >95%
inhibition of transfer from dendritic cells to T lymphocytes, HIV-1Bal (R5-tropic) (HIV-1Bal (R5-tropic) [5]; [8]): more than 95%
inhibition of transfer from dendritic cells to T lymphocytes, HIV-1Bal (R5-tropic) (HIV-1Bal (R5-tropic) [5]; diluted to 1/2000th): the same results
inhibition of transfer from dendritic cells to T lymphocytes, HIV-1NDK (X4-tropic) (HIV-1NDK (X4-tropic) [6]; [7]): >95%
inhibition of transfer from dendritic cells to T lymphocytes, HIV-1NDK (X4-tropic) (HIV-1NDK (X4-tropic) [6]; [8]): more than 95%
detergent activity with respect to the X4 strains (X4 strains): has a detergent activity
rendering the X4 strains noninfectious (X4 strains): capable of rendering the X4 strains noninfectious

zinc cinnamo-camphorate [Fourth preparation]
inhibition of macrophage infection, HIV-1Bal (R5-tropic) (HIV-1Bal (R5-tropic) [1]; [9]): >90%
inhibition of macrophage infection, HIV-1Bal (R5-tropic) (HIV-1Bal (R5-tropic) [1]; [10]): the same results
inhibition of macrophage infection, HIV-1NDK (X4-tropic) (HIV-1NDK (X4-tropic) [2]; [9]): >90%
inhibition of macrophage infection, HIV-1NDK (X4-tropic) (HIV-1NDK (X4-tropic) [2]; [10]): the same results
inhibition of dendritic cell infection, HIV-1Bal (R5-tropic) (HIV-1Bal (R5-tropic) [3]; diluted to 1/2000th): 0%
inhibition of dendritic cell infection, HIV-1NDK (X4-tropic) (HIV-1NDK (X4-tropic) [4]; diluted to 1/2000th): 0%
inhibition of transfer from dendritic cells to T lymphocytes, HIV-1Bal (R5-tropic) (HIV-1Bal (R5-tropic) [5]; diluted to 1/2000th): 0%
inhibition of transfer from dendritic cells to T lymphocytes, HIV-1NDK (X4-tropic) (HIV-1NDK (X4-tropic) [6]; diluted to 1/2000th): 0%

Source: patent publication US8198321B2, “Anti-microorganism terpenic composition” (priority 2006, dated 2012)
